Here are results for 38 compounds from patent publication US9828339B2, “Biphenyl derivatives and methods for preparing same” (DONG-A ST CO., LTD, priority 2013, dated 2017).

In general, Ki refers to a measure of affinity in units of concentration, obtained from inhibition or displacement.

The assay concerns the target human muscarinic M3 receptor (Homo sapiens (Human), UniProt P20309). As to the kind of experiment: Binding assay on human muscarinic M3 receptor ([3H]-methyl scopolamine displacement). As to conditions: membranes overexpressing human M3 receptor, Ki from IC50 by Cheng-Prusoff, read-out: Binding Affinity to M3 Receptor, Ki. How it is done: [Experimental Example 1] Binding Assay on Human Muscarinic M3 Receptor
Cell membrane proteins (Perkin Elmer) wherein human muscarinic M3 receptor was overexpressed, [^3H]-methyl scopolamine and test compounds in various concentration were cultured in 0.2 ml of Tris-HCl buffer at 25° C. for 120 minutes. The same was filtered under suction through glass fiber filter (Whatman GF/B), and then the filter was washed 5 times with 1 ml of Tris-HCl buffer. The radioactivity of [^3H]-methyl scopolamine adsorbed on the filter was measured by a liquid scintillation counter. Non-specific binding was evaluated under existence of 5 μM of atropine. Affinity of the compound of the present invention to muscarinic M3 receptor was calculated as the dissociation constant (Ki), which can be calculated from concentration (IC50) of test compounds inhibiting 50% of binding of [^3H]-methyl scopolamine (i.e. labeled ligand) according to Cheng and Prusoff [Cheng and Prusoff, Biochem. Pharmacol., 22, 3099, 1973].

Sequence of human muscarinic M3 receptor (P20309 whole entry): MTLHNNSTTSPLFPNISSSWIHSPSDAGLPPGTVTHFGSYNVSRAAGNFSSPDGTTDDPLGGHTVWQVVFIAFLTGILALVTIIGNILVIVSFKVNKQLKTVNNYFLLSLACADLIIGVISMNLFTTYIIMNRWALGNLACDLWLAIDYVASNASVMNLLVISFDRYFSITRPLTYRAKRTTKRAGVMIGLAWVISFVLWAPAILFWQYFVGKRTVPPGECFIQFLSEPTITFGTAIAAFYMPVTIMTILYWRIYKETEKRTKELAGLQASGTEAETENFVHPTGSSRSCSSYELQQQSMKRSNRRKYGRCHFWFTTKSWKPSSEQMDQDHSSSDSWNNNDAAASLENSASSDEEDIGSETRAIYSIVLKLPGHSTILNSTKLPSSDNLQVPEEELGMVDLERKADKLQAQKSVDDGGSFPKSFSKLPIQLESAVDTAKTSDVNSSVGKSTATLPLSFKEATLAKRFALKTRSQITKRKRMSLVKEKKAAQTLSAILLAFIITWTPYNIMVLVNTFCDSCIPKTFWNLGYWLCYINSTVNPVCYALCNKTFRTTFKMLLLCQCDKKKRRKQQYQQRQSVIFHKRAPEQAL

In the case of `COc1ccc(NC(=O)OCCC2CCCN2C)c(-c2cccc(F)c2)c1` (centres unmarked) [Example 61, 2-(1-methylpyrrolidin-2-yl)ethyl(3′-fluoro-5-methoxy-[1,1′-biphenyl]-2-yl)carbamate], the Ki amounted to 218 nM. For `COc1ccc(NC(=O)OCCC2CCCN2C)c(-c2cc(F)cc(F)c2)c1` (centres unmarked) [Example 62, 2-(1-Methylpyrrolidin-2-yl)ethyl(3′,5′-difluoro-5-methoxy-[1,1′-biphenyl]-2-yl)carbamate] the value was > 1000 nM; for `COc1ccc(NC(=O)OCCC2CCCN2C)c(-c2cccc(Cl)c2)c1` (centres unmarked) [Example 63, 2-(1-methylpyrrolidin-2-yl)ethyl(3′-chloro-5-methoxy-[1,1′-biphenyl]-2-yl)carbamate], 58.1 nM; for `COc1ccc(NC(=O)OCCC2CCCN2C)c(-c2cc(Cl)cc(Cl)c2)c1` (centres unmarked) [Example 64, 2-(1-Methylpyrrolidin-2-yl)ethyl(3′,5′-dichloro-5-methoxy-[1,1′-biphenyl]-2-yl)carbamate], > 1000 nM. Turning to `COc1ccc(NC(=O)OCCC2CCCN2C)c(-c2ccc(F)c(Cl)c2)c1` (centres unmarked) [Example 65, 2-(1-Methylpyrrolidin-2-yl)ethyl (3′-chloro-4′-fluoro-5-methoxy-[1,1′-biphenyl]-2-yl)carbamate], the Ki was determined as 71.3 nM.

For the compound `CN1CCCC1CCOC(=O)Nc1ccc(Cl)cc1-c1cc(F)cc(F)c1` (centres unmarked) [Example 69, 2-(1-Methylpyrrolidin-2-yl)ethyl(5-chloro-3′,5′-difluoro-[1,1′-biphenyl]-2-yl)carbamate], the Ki was found to be 109 nM. For `CN1CCCC1CCOC(=O)Nc1ccc(Cl)cc1-c1cc(Cl)cc(Cl)c1` (centres unmarked) [Example 71, 2-(1-Methylpyrrolidin-2-yl)ethyl (3′,5,5′-trichloro-[1,1′-biphenyl]-2-yl)carbamate] the value was 134 nM; for `CN1CCCC1CCOC(=O)Nc1ccc(Cl)cc1-c1cc(F)cc(Cl)c1` (centres unmarked) [Example 72, 2-(1-Methylpyrrolidin-2-yl)ethyl (3′,5-dichloro-5′-fluoro-[1,1′-biphenyl]-2-yl)carbamate], 58.8 nM; for `CN1CC[C@@H](COC(=O)Nc2ccccc2-c2ccc(C=O)c(F)c2)C1` [Example 74, (R)-(1-methylpyrrolidin-3-yl)methyl (3′-fluoro-4′-formyl-[1,1′-biphenyl]-2-yl)carbamate], > 1000 nM. `CN1CCCC1CCOC(=O)Nc1ccc(O)cc1-c1cc(F)cc(F)c1` (centres unmarked) [Example 75, 2-(1-methylpyrrolidin-2-yl)ethyl (3′,5′-difluoro-5-hydroxy-[1,1′-biphenyl]-2-yl)carbamate]: the Ki came out at 471 nM. For `CN1CCCC1CCOC(=O)Nc1ccc(O)cc1-c1cc(Cl)cc(Cl)c1` (centres unmarked) [Example 76, 2-(1-methylpyrrolidin-2-yl)ethyl (3′,5′-dichloro-5-hydroxy-[1,1′-biphenyl]-2-yl)carbamate] the value was > 1000 nM; for `O=C(Nc1ccccc1-c1cc(F)cc(F)c1)OC[C@@H]1CCNC1` [Example 80, (R)-pyrrolidin-3-ylmethyl-(3′,5′-difluoro-[1,1′-biphenyl]-2-yl)carbamate], 27.4 nM; for `O=C(Nc1ccccc1-c1cc(F)cc(F)c1)OC[C@H]1CCNC1` [Example 81, (S)-pyrrolidin-3-ylmethyl-(3′,5′-difluoro-[1,1′-biphenyl]-2-yl)carbamate], 30.4 nM.

In the case of `O=C(Nc1ccc(F)cc1-c1ccccc1)OC[C@H]1CCNC1` [Example 82, (S)-pyrrolidin-3-ylmethyl-(5-fluoro-[1,1′-biphenyl]-2-yl)carbamate], the Ki stood at 18.9 nM. For `Cc1cccc(-c2cc(F)ccc2NC(=O)OC[C@H]2CCNC2)c1` [Example 83, (S)-pyrrolidin-3-ylmethyl (5-fluoro-3′-methyl-[1,1′-biphenyl]-2-yl)carbamate], the Ki was determined as 18.3 nM. For `O=C(Nc1ccc(F)cc1-c1cc(F)cc(F)c1)OC[C@@H]1CCNC1` [Example 84, (R)-pyrrolidin-3-ylmethyl (3′,5,5′-trifluoro-[1,1′-biphenyl]-2-yl)carbamate] the value was 34.9 nM. For `Cc1ccc(NC(=O)OC[C@@H]2CCNC2)c(-c2ccccc2)c1` [Example 86, (R)-pyrrolidin-3-ylmethyl (5-methyl-[1,1′-biphenyl]-2-yl)carbamate] the value was 111 nM.

As for `Cc1ccc(NC(=O)OC[C@@H]2CCNC2)c(-c2cccc(F)c2)c1` [Example 87, (R)-pyrrolidin-3-ylmethyl (3′-fluoro-5-methyl-[1,1′-biphenyl]-2-yl)carbamate], the Ki was found to be 94.4 nM. As for `CN1CC[C@H](COC(=O)Nc2ccccc2-c2cc(F)cc(F)c2)C1` [Example 92, (S)-(1-methylpyrrolidin-3-yl)methyl (3′,5′-difluoro-[1,1′-biphenyl]-2-yl)carbamate], the Ki worked out at 10.7 nM. For `Cc1cccc(-c2cc(F)ccc2NC(=O)OC[C@H]2CCN(C)C2)c1` [Example 94, (S)-(1-methylpyrrolidin-3-yl)methyl (5-fluoro-3′-methyl-[1,1′-biphenyl]-2-yl)carbamate] the value was 6.18 nM; for `CN1CC[C@H](COC(=O)Nc2ccc(F)cc2-c2cc(F)cc(F)c2)C1` [Example 96, (S)-(1-methylpyrrolidin-3-yl)methyl (3′,5,5′-trifluoro-[1,1′-biphenyl]-2-yl)carbamate], 17.6 nM. As for `Cc1ccc(NC(=O)OC[C@@H]2CCN(C)C2)c(-c2ccccc2)c1` [Example 97, (R)-(1-methylpyrrolidin-3-yl)methyl (5-methyl-[1,1′-biphenyl]-2-yl)carbamate], the figure is 35.2 nM. Take `Cc1ccc(NC(=O)OC[C@@H]2CCN(C)C2)c(-c2cccc(F)c2)c1` [Example 98, (R)-(1-methylpyrrolidin-3-yl)methyl (3′-fluoro-5-methyl-[1,1′-biphenyl]-2-yl)carbamate]: the Ki amounted to 46.2 nM. As for `CCN1CC[C@@H](COC(=O)Nc2ccccc2-c2ccccc2)C1` [Example 102, (R)-(1-ethylpyrrolidin-3-yl)methyl [1,1′-biphenyl]-2-ylcarbamate], the figure is 12.9 nM. On to `CCN1CC[C@H](COC(=O)Nc2ccccc2-c2ccccc2)C1` [Example 103, (S)-(1-ethylpyrrolidin-3-yl)methyl [1,1′-biphenyl]-2-ylcarbamate], for which the inhibition constant (Ki) was found to be 13 nM. On to `CCN1CC[C@@H](COC(=O)Nc2ccccc2-c2cccc(C)c2)C1` [Example 104, (R)-(1-ethylpyrrolidin-3-yl)methyl (3′-methyl-[1,1′-biphenyl]-2-yl)carbamate], for which the Ki amounted to 14.2 nM. As for `CCN1CC[C@H](COC(=O)Nc2ccccc2-c2cccc(C)c2)C1` [Example 105, (S)-(1-ethylpyrrolidin-3-yl)methyl (3′-methyl-[1,1′-biphenyl]-2-yl)carbamate], the figure is 19.6 nM; as for `CC(C)CN1CCC[C@H]1COC(=O)Nc1ccccc1-c1ccccc1` [Example 107, (S)-(1-isobutylpyrrolidin-2-yl)-methyl [1,1′-biphenyl]-2-ylcarbamate], 752 nM.

In the case of `Cc1cccc(-c2ccccc2NC(=O)OC[C@H]2CCCN2C)c1` [Example 110, (R)-(1-methylpyrrolidin-2-yl)-methyl (3′-methyl-[1,1′-biphenyl]-2-yl)carbamate], the Ki was 9.13 nM. Turning to `Cc1cccc(-c2cc(F)ccc2NC(=O)OC[C@H]2CCCN2C)c1` [Example 111, (R)-(1-methylpyrrolidin-2-yl)-methyl (5-fluoro-3′-methyl-[1,1′-biphenyl]-2-yl)carbamate], the Ki is 10.8 nM. As for `CN1CC[C@@H](COC(=O)Nc2ccccc2-c2cccc(F)c2)C1` [Example 113, (R)-(1-methylpyrrolidin-3-yl)-methyl (3′-fluoro-[1,1′-biphenyl]-2-yl)carbamate], the Ki was found to be 1.92 nM.

On to `CN1CC[C@H](COC(=O)Nc2ccccc2-c2cc(Cl)cc(Cl)c2)C1` [Example 119, (S)-(1-methylpyrrolidin-3-yl)methyl(3′,5′-dichloro-[1,1′-biphenyl]-2-yl)carbamate], for which the Ki was 42.3 nM. As for `Cc1cc(C)cc(-c2cc(F)ccc2NC(=O)OC[C@H]2CCN(C)C2)c1` [Example 122, (S)-(1-methylpyrrolidin-3-yl)methyl(5-fluoro-3′,5′-dimethyl-[1,1′-biphenyl]-2-yl)carbamate], the figure is 87.8 nM; as for `CN1CC[C@H](COC(=O)Nc2ccc(F)cc2-c2cc(O)cc(Cl)c2)C1` [Example 123, (S)-(1-methylpyrrolidin-3-yl)methyl(3′-chloro-5-fluoro-5′-hydroxy-[1,1′-biphenyl]-2-yl)carbamate], 52.8 nM. As for `CN1CC[C@H](COC(=O)Nc2ccc(F)cc2-c2ccc(Cl)cc2)C1` [Example 127, (S)-(1-methylpyrrolidin-3-yl)methyl(4′-chloro-5-fluoro-[1,1′-biphenyl]-2-yl)carbamate], the figure is 69.4 nM; as for `CN1CC[C@@H](COC(=O)Nc2ccc(F)cc2-c2cccc(N)c2)C1` [Example 133, (R)-(1-methylpyrrolidin-3-yl)methyl(5-fluoro-3′-amino-[1,1′-biphenyl]-2-yl)carbamate], 34.5 nM; as for `CN1CC[C@@H](COC(=O)Nc2ccc(F)cc2-c2cc(O)cc(Cl)c2)C1` [Example 134, (R)-(1-methylpyrrolidin-3-yl)methyl(3′-chloro-5-fluoro-5′-hydroxy-[1,1′-biphenyl]-2-yl)carbamate], 46.9 nM. For `CN1CC[C@@H](COC(=O)Nc2ccccc2-c2cccc(O)c2)C1` [Example 137, (R)-(1-methylpyrrolidin-3-yl)methyl(3′-hydroxy-[1,1′-biphenyl]-2-yl)carbamate] the value was 27 nM.
